Results as given in publication PMC3034713, “Targeting Vascular NADPH Oxidase 1 Blocks Tumor Angiogenesis through a PPARα Mediated Mechanism” (PLoS ONE, 2011).

Legend:
LLC1 tumors = assay: Tumor growth assay, LLC1 injected subcutaneously; assay type: in vivo, mice; settings: for tumor vascularization (PECAM-1), vehicle = 100%: 40 mg/kg/day oral for 8 days
Experimental: 5. 10^5 of LLC1 or B16F0 were injected subcutaneously on the back of mice. […] Frozen sections of tumors were stained with anti-PECAM-1 antibody (rat monoclonal, [74]).

12-Lipoxygenase = 12-Lipoxygenase (Homo sapiens, UniProt P18054); assay: Pharmacological profiling (Cerep), Table S1
12-Lipoxygenase, sequence (P18054 whole entry): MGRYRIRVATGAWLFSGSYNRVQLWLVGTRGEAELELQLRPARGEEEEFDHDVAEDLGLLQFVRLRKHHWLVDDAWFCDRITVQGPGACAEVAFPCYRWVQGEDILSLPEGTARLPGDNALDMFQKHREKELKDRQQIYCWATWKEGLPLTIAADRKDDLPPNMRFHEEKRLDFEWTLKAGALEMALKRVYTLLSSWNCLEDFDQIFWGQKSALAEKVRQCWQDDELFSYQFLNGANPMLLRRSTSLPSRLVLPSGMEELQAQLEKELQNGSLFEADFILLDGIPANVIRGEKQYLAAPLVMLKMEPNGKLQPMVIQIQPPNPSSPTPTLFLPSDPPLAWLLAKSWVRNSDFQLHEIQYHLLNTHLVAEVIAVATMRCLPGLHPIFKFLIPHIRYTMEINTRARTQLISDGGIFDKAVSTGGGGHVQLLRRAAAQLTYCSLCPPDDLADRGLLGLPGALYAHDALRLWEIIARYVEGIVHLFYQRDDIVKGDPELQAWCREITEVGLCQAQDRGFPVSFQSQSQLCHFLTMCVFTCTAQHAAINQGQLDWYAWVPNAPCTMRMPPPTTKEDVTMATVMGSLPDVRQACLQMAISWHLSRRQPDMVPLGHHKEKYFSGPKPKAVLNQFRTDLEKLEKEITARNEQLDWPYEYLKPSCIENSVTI

MAO-B = MAO-B (Homo sapiens, UniProt P27338); assay: Pharmacological profiling (Cerep), Table S1
MAO-B, sequence (P27338 whole entry, species assumed): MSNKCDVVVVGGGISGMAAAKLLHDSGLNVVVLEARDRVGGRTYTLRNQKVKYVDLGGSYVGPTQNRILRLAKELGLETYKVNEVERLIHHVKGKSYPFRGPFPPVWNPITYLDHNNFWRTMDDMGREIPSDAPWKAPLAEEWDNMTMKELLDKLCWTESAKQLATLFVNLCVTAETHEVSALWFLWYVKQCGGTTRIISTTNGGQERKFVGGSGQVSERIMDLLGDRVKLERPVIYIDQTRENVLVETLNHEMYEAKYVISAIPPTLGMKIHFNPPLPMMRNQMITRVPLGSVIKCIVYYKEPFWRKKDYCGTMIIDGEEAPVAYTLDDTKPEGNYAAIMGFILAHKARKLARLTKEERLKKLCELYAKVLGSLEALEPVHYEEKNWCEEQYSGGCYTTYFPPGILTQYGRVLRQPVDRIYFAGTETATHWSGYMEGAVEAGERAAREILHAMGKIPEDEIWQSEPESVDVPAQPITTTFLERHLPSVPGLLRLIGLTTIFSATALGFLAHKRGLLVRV

cNos = assay: Pharmacological profiling (Cerep), Table S1; assay type: biochemical
B16F0 tumors = assay: Tumor growth assay, B16F0 injected subcutaneously; assay type: in vivo, mice; settings: 40 mg/kg/day oral for 8 days
Experimental: 5. 10^5 of LLC1 or B16F0 were injected subcutaneously on the back of mice. Mice were treated with NOX inhibitor, GKT136901 or vehicle (Carboxymethyl-cellulose, CMC) at 40 mg/kg everyday per os or i.p with anti-VEGFR2 antibody (DC101) at 0.8 mg every 2 days. When the control tumor reached approximately 1 cm in length, mice were sacrificed and the tumor excised, weighed and frozen. Frozen sections of tumors were stained with anti-PECAM-1 antibody (rat monoclonal, [74]).

NOX1 = molecular target: T1, NOX1 (Homo sapiens, UniProt Q9Y5S8); assay: NOX inhibition in cell free assay, membranes from cells overexpressing NOX1 (Amplex Red ROS); assay type: biochemical
T1 construct: expressed in transfected cells
T1 sequence (Q9Y5S8 1-564): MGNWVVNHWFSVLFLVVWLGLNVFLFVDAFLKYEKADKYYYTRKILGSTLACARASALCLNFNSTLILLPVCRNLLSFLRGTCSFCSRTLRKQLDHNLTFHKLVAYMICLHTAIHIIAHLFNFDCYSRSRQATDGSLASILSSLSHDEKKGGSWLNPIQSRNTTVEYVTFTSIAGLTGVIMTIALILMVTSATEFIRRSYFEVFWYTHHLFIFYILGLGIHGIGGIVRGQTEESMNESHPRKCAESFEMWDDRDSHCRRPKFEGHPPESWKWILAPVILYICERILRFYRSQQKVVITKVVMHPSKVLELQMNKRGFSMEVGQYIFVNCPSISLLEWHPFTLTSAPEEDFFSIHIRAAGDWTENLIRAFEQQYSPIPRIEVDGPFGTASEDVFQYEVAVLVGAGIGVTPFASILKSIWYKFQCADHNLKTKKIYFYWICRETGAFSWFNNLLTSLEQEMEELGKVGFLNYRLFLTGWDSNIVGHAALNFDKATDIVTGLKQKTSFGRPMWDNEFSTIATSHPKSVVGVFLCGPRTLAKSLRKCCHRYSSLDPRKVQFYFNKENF
T1 sequence (P13498 2-195 partner limits assumed): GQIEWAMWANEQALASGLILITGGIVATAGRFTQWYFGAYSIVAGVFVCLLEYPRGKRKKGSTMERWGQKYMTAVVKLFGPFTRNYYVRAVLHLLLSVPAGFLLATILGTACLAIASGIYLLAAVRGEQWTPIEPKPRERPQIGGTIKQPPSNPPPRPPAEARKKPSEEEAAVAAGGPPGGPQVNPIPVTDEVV
Experimental: Membranes from NOX2 expressing PMN cells or from cells overexpressing NOX1 or NOX4 were prepared as previously described. After resuspension in sonication buffer (11% sucrose, 120 mM NaCl, 1 mM EGTA in PBS, pH 7.4 for NOX4-expressing cells) or in relax buffer (10 mM Pipes, 3 mM NaCl, 3.5 mM MgCl2, 0.1 M KCl, pH 7.4), cells were broken by sonication and centrifuged (200 g, 10 min). The supernatant was loaded onto a 17/40% (w/v) discontinuous sucrose gradient and centrifuged (150,000 g for 30 min). Membrane fractions were collected and stored at −80°C. ROS production measurements of membranes expressing different NOX subunits was determined as previously described using the Amplex Red method (Invitrogen).

Cc1c2c(=O)n(-c3ccccc3Cl)[nH]c2cc(=O)n1Cc1ccccn1 [GKT136901]
reduction of vascular area (PECAM-1) compared to vehicle (LLC1 tumors; LLC1, 40 mg/kg daily oral from one day after injection): 59% ±9.3
tumor size smaller compared to vehicle-treated mice (LLC1 tumors; LLC1, 40 mg/kg daily oral from one day after injection, one week of treatment): 34% ±5.8
tumor vascularization (PECAM-1), vehicle = 100% (LLC1 tumors; LLC1 in PPARα deficient mice): 129% ±23
tumor vascularization (PECAM-1), vehicle = 100% (LLC1 tumors; LLC1 in WT mice): 65% ±13
reduction of tumor vascularization (PECAM-1), therapeutic treatment (LLC1 tumors; established LLC1 tumors, start 8 days after implantation, day 12): 36% ±16
delay of tumor progression (tumor volume), therapeutic treatment (LLC1 tumors; established LLC1 tumors, start 8 days after implantation, GKT136901 40 mg/kg per os, DC101 0.8 mg i.p. every 2 days): 35% ±5.7
% Inhibition at 10 µM (12-Lipoxygenase): 2%
% Inhibition at 10 µM (MAO-B): 0%
% Inhibition at 10 µM (cNos): 0%
tumor vascularization (PECAM-1), vehicle = 100% (B16F0 tumors; B16F0 in PPARα deficient mice): 98% ±24
tumor vascularization (PECAM-1), vehicle = 100% (B16F0 tumors; B16F0 in WT mice): 64% ±14
extent of inhibition of oxidase activity of NOX1 (NOX1; Figure S2): completely inhibits
Ki (NOX1; cell-free, membranes from NOX1 over-expressing cells): 160 ± 10 nM
